Assays:
[1] = target: B-Raf (Homo sapiens, UniProt P15056); test: Kinase activity assay, B-Raf; assay type: biochemical; conditions: read-out: activity toward kinase B-Raf, IC50
[2] = target: Src (Homo sapiens, UniProt P12931); test: Kinase activity assay, Src
[3] = target: Kdr (Homo sapiens, UniProt P35968); test: Kinase activity assay, Kdr
[4] = target: C-Raf (Homo sapiens, UniProt P04049); test: Kinase activity assay, C-Raf
[5] = target: Fms (Homo sapiens, UniProt P07333); test: Kinase activity assay, Fms
[6] = target: Kit (Homo sapiens, UniProt P10721); test: Kinase activity assay, Kit
[7] = target: B-Raf V600E (Homo sapiens, UniProt P15056, V600E); test: Kinase activity assay, B-Raf V600E; assay type: biochemical; conditions: read-out: activity toward kinase B-Raf V600E, IC50
[8] = target: MAP4K4 (Homo sapiens, UniProt O95819); test: Kinase activity assay, MAP4K4

Measured: IC50

Sequence of B-Raf V600E (P15056 whole entry V600E): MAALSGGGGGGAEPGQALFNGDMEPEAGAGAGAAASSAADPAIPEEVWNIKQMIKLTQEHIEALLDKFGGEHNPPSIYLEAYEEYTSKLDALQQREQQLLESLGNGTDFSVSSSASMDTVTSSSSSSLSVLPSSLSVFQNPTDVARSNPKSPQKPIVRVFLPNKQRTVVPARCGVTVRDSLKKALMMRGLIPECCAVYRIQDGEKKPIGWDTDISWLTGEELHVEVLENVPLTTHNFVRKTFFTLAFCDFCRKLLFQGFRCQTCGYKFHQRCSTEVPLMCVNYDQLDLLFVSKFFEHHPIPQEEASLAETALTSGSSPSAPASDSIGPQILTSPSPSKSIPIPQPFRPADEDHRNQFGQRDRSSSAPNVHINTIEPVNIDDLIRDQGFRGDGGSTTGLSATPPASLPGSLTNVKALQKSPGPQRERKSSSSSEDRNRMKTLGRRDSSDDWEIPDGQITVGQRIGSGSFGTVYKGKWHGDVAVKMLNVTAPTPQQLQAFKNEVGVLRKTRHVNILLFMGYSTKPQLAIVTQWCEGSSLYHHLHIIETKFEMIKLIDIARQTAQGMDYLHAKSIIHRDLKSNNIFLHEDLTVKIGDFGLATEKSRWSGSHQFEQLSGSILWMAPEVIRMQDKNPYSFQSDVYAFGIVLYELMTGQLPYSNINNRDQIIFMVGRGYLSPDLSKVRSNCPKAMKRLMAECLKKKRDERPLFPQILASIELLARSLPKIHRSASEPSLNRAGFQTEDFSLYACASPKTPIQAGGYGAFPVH
Sequence of Src (P12931 whole entry): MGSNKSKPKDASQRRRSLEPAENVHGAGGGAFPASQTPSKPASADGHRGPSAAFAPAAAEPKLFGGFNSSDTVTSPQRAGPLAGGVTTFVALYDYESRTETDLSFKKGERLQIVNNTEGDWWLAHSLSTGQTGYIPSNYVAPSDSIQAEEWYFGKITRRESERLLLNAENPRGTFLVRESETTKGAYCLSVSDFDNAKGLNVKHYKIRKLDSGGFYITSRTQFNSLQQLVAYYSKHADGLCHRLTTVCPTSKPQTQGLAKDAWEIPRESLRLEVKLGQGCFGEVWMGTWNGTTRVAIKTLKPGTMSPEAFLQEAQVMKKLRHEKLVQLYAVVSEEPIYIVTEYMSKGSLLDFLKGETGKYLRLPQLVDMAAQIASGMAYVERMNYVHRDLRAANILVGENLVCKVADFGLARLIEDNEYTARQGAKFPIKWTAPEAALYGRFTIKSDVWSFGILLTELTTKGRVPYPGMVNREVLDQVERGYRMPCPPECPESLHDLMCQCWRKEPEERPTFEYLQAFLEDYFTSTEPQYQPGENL
Sequence of Kit (P10721 26-976): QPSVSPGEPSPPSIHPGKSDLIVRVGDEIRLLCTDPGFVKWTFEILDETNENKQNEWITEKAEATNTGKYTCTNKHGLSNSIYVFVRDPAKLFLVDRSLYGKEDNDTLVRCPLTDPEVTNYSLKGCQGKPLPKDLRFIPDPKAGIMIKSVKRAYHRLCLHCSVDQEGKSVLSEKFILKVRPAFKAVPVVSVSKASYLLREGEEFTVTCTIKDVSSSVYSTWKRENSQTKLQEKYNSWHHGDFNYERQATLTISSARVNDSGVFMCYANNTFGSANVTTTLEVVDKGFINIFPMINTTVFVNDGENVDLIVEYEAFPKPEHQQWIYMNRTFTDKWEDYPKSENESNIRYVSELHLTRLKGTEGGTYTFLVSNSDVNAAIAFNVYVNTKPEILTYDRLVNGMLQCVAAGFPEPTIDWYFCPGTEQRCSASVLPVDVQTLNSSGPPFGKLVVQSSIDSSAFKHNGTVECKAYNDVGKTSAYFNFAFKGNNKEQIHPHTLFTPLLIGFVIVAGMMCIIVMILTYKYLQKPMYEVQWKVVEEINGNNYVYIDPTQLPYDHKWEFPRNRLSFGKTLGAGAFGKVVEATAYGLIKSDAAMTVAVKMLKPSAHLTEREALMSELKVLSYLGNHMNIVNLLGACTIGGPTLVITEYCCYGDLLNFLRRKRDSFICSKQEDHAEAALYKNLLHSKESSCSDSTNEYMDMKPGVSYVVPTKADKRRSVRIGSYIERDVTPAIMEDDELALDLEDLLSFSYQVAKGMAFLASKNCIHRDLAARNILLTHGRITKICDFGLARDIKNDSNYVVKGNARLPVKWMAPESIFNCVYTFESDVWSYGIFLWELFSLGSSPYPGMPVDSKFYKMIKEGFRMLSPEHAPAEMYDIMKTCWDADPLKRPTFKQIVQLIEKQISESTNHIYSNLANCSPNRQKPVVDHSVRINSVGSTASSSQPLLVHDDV
Sequence of C-Raf (P04049 whole entry): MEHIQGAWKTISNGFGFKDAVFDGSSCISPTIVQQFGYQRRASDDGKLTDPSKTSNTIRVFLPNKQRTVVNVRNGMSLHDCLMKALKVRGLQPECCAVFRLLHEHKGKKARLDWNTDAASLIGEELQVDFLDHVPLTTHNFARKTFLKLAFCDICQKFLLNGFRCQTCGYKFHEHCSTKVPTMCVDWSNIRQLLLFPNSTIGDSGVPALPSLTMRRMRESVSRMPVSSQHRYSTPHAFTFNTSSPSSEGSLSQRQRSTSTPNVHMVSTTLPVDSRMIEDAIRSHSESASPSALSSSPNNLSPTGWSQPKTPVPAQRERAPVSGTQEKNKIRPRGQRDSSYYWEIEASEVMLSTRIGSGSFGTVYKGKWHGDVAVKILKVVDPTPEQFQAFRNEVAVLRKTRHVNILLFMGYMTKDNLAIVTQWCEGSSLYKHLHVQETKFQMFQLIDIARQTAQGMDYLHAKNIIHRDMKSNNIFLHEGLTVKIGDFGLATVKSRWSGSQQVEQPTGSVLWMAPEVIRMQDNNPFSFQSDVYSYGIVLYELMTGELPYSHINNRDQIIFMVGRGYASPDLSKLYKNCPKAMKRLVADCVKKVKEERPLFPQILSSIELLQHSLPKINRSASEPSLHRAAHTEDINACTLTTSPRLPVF
Sequence of Kdr (P35968 20-1356): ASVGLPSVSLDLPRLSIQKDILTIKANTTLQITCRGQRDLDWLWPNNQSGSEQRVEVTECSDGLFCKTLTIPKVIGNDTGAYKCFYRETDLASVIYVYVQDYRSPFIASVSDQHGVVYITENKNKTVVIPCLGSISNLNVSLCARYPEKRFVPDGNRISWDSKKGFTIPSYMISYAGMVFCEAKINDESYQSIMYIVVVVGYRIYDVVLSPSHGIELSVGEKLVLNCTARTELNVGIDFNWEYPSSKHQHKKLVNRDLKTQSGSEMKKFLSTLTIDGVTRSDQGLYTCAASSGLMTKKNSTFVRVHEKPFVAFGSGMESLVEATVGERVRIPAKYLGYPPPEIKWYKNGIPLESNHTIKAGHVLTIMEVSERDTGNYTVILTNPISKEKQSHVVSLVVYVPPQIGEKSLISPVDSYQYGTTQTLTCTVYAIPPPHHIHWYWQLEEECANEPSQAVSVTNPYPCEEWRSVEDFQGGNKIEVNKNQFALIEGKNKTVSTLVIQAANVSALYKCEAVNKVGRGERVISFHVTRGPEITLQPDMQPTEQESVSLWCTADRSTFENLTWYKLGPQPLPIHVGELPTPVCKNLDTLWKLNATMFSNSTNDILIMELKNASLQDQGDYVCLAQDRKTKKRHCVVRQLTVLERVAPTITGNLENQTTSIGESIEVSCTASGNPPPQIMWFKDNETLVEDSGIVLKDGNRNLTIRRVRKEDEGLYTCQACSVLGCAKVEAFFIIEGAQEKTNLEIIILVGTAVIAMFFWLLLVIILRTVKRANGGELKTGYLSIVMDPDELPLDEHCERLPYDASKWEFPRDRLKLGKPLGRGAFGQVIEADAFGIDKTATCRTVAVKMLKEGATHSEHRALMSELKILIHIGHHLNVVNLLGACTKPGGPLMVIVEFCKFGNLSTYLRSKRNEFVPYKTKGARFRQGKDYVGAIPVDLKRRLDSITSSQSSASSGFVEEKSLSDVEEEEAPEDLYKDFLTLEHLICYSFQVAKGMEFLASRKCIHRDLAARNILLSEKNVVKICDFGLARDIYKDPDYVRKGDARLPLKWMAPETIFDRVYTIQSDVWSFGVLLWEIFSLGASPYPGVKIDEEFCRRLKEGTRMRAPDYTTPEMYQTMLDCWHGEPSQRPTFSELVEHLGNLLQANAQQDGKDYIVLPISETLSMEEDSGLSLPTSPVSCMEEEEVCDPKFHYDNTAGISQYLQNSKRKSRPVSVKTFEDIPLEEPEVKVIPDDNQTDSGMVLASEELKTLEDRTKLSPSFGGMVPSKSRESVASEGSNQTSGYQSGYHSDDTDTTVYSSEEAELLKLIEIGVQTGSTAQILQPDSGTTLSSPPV
Sequence of B-Raf (P15056 whole entry): as the sequence (P15056 whole entry V600E) above, with E600V counted along it

CN1CCOc2cc(S(=O)(=O)Nc3ccc(F)c(C(=O)c4c[nH]c5ncc(Cl)cc45)c3F)ccc21 [P-2001, 4-Methyl-3,4-dihydro-2H-benzo[1,4]oxazine-7-sulfonic acid [3-(5-chloro-1H-pyrrolo[2,3-b]pyridine-3-carbonyl)-2,4-difluoro-phenyl]-amide]
not listed: [7] | [8]
≤ 10 µM: all other assays above

Cc1cc(C)cc(S(=O)(=O)Nc2ccc(F)c(C(=O)c3c[nH]c4ncc(Cl)cc34)c2F)c1 [P-2004, N-[3-(5-Chloro-1H-pyrrolo[2,3-b]pyridine-3-carbonyl)-2,4-difluoro-phenyl]-3,5-dimethyl-benzenesulfonamide]
not listed: [8]
≤ 10 µM: all other assays above

COc1ccc(S(=O)(=O)Nc2ccc(F)c(C(=O)c3c[nH]c4ncc(Cl)cc34)c2F)cc1F [P-2005, N-[3-(5-Chloro-1H-pyrrolo[2,3-b]pyridine-3-carbonyl)-2,4-difluoro-phenyl]-3-fluoro-4-methoxy-benzenesulfonamide]
not listed: [8]
≤ 10 µM: all other assays above

Cc1cc(F)ccc1S(=O)(=O)Nc1ccc(F)c(C(=O)c2c[nH]c3ncc(Cl)cc23)c1F [P-2006, N-[3-(5-Chloro-1H-pyrrolo[2,3-b]pyridine-3-carbonyl)-2,4-difluoro-phenyl]-4-fluoro-2-methyl-benzenesulfonamide]
not listed: [8]
≤ 10 µM: all other assays above

O=C(c1c(F)ccc(NS(=O)(=O)c2ccc3c(c2)CCO3)c1F)c1c[nH]c2ncc(Cl)cc12 [P-2007, 2,3-Dihydro-benzofuran-5-sulfonic acid [3-(5-chloro-1H-pyrrolo[2,3-b]pyridine-3-carbonyl)-2,4-difluoro-phenyl]-amide]
not listed: [3] | [8]
≤ 10 µM: all other assays above

Cc1cnc2[nH]cc(C(=O)c3c(F)ccc(NS(=O)(=O)c4ccc(F)cc4F)c3F)c2c1 [P-2025, N-[2,4-Difluoro-3-(5-methyl-1H-pyrrolo[2,3-b]pyridine-3-carbonyl)-phenyl]-2,4-difluoro-benzenesulfonamide]
not listed: [5]
≤ 10 µM: all other assays above

O=C(c1c(F)ccc(NS(=O)(=O)c2ccc(F)cc2)c1F)c1c[nH]c2nccc(Cl)c12 [P-2026, N-[3-(4-Chloro-1H-pyrrolo[2,3-b]pyridine-3-carbonyl)-2,4-difluoro-phenyl]-4-fluoro-benzenesulfonamide]
not listed: [5]
≤ 10 µM: all other assays above

O=C(c1c(F)ccc(NS(=O)(=O)c2cccnc2)c1F)c1c[nH]c2nccc(Cl)c12 [P-2074, Pyridine-3-sulfonic acid [3-(4-chloro-1H-pyrrolo[2,3-b]pyridine-3-carbonyl)-2,4-difluoro-phenyl]-amide]
≤ 10 µM: [2] | [8]

O=C(c1cccc(NS(=O)(=O)c2cccnc2)c1)c1c[nH]c2ncc(Cl)cc12 [P-2146, Pyridine-3-sulfonic acid [3-(5-chloro-1H-pyrrolo[2,3-b]pyridine-3-carbonyl)-phenyl]-amide]
≤ 10 µM: [3] | [8]

CCCS(=O)(=O)Nc1ccc(F)c(C(=O)c2c[nH]c3ncc(-c4ccc(F)nc4)cc23)c1F [P-2155, Propane-1-sulfonic acid {2,4-difluoro-3-[5-(6-fluoro-pyridin-3-yl)-1H-pyrrolo[2,3-b]pyridine-3-carbonyl]-phenyl}-amide]
not listed: [8]
≤ 10 µM: all other assays above

CCCS(=O)(=O)Nc1ccc(F)c(C(=O)c2c[nH]c3ncc(-c4ccc(S(=O)(=O)N5CCOCC5)cc4)cc23)c1F [P-2166, Propane-1-sulfonic acid (2,4-difluoro-3-{5-[4-(morpholine-4-sulfonyl)-phenyl]-1H-pyrrolo[2,3-b]pyridine-3-carbonyl}-phenyl)-amide]
not listed: [8]
≤ 10 µM: all other assays above

CCCS(=O)(=O)Nc1ccc(F)c(C(=O)c2c[nH]c3ncc(-c4ccc(S(=O)(=O)NC)cc4)cc23)c1F [P-2167, 4-{3-[2,6-Difluoro-3-(propane-1-sulfonylamino)-benzoyl]-1H-pyrrolo[2,3-b]pyridin-5-yl}-N-methyl-benzenesulfonamide]
not listed: [8]
≤ 10 µM: all other assays above

CCCS(=O)(=O)Nc1ccc(F)c(C(=O)c2c[nH]c3ncc(-c4cccc(O)c4)cc23)c1F [P-2179, Propane-1-sulfonic acid {2,4-difluoro-3-[5-(3-hydroxy-phenyl)-1H-pyrrolo[2,3-b]pyridine-3-carbonyl]-phenyl}-amide]
not listed: [8]
≤ 10 µM: all other assays above

CCCS(=O)(=O)Nc1ccc(F)c(C(=O)c2c[nH]c3ncc(-c4ccc(S(=O)(=O)N(C)C)cc4)cc23)c1F [P-2185, 4-{3-[2,6-Difluoro-3-(propane-1-sulfonylamino)-benzoyl]-1H-pyrrolo[2,3-b]pyridin-5-yl}-N,N-dimethyl-benzenesulfonamide]
not listed: [8]
≤ 10 µM: all other assays above

CCCS(=O)(=O)Nc1ccc(F)c(C(=O)c2c[nH]c3ncc(-c4cnc(N5CCCC5)nc4)cc23)c1F [P-2219, Propane-1-sulfonic acid {2,4-difluoro-3-[5-(2-pyrrolidin-1-yl-pyrimidin-5-yl)-1H-pyrrolo[2,3-b]pyridine-3-carbonyl]-phenyl}-amide]
not listed: [5] | [6]
≤ 10 µM: all other assays above

CCS(=O)(=O)Nc1ccc(F)c(C(=O)c2c[nH]c3ncc(-c4ccc(Cl)cc4)cc23)c1F [P-2269, Ethanesulfonic acid {3-[5-(4-chloro-phenyl)-1H-pyrrolo[2,3-b]pyridine-3-carbonyl]-2,4-difluoro-phenyl}-amide]
≤ 10 µM: [3] | [8]

CCS(=O)(=O)Nc1ccc(F)c(C(=O)c2c[nH]c3nccc(OC)c23)c1F [P-2279, Ethanesulfonic acid [2,4-difluoro-3-(4-methoxy-1H-pyrrolo[2,3-b]pyridine-3-carbonyl)-phenyl]-amide]
≤ 10 µM: [1] | [3] | [4] | [7] | [8]

Cc1cnc2[nH]cc(C(=O)c3cccc(NS(=O)(=O)C4CCCC4)c3)c2c1 [P-2459, Cyclopentanesulfonic acid [3-(5-methyl-1H-pyrrolo[2,3-b]pyridine-3-carbonyl)-phenyl]-amide]
≤ 10 µM: [3] | [8] | [6]

O=C(O)CCc1cccc(-c2cnc3[nH]cc(C(=O)c4cccc(NS(=O)(=O)C5CCCC5)c4)c3c2)c1 [P-2466, 3-{3-[3-(3-Cyclopentanesulfonylamino-benzoyl)-1H-pyrrolo[2,3-b]pyridin-5-yl]-phenyl}-propionic acid]
≤ 10 µM: [2] | [3] | [7] | [8] | [6]
